Assay results as given in patent publication US9040534B2, “[1,2,4]triazolo[4,3-a]pyrazines as P2X7 modulators” (Janssen Pharmaceutica NV, priority 2013, dated 2015).

Columns and labels:
P2X7 [1] = biological target: T1, P2X7 (Homo sapiens (Human), UniProt Q99572); experiment: Ca2+ flux (FLIPR) in 1321N1 cells expressing recombinant human P2X7 channel; format: cell-based; conditions: 250 μM BzATP
Experimental: (§1) (A) Ca^2+ Flux: 1321N1 cells expressing the recombinant human, rat or mouse P2X7 channel was cultured in HyQ DME/(HyClone/Dulbecco's Modified Eagle Medium) high glucose supplemented with 10% Fetal Bovine Serum (FBS) and appropriate selection marker. Cells were seeded at a density of 25000 cells/well (96-well clear bottom black walled plates) in 100 μl volume/well. On the day of the experiment, cell plates were washed with assay buffer, containing (in mM): 130 NaCl, 2 KCl, 1 CaCl2, 1 MgCl2, 10 HEPES, 5 glucose; pH 7.40 and 300 mOs. After the wash, cells were loaded with the Calcium-4 dye (Molecular Device) and incubated in the dark for 60 minutes. Test compounds were prepared at 250× the test concentration in neat DMSO. Intermediate 96-well compound plates were prepared by transferring 1.2 μL of the compound into 300 μL of assay buffer. A further 3× dilution occurred when transferring 50 μL/well of the compound plate to 100 μL/well in the cell plate. Cells were incubated with test compounds and dye for 30 minutes. […] The fluorescence change was measured 180 seconds after adding the agonist.

P2X7 [2] = biological target: T1, P2X7; experiment: Radioligand binding, human P2X7-1321N1 cell membranes, tritiated A-804598 tracer; conditions: 1 hour at 4° C.
Experimental: (B) Radioligand binding: human or rat P2X7-1321N1 cells were collected and frozen @ −80° C. On the day of the experiment, cell membrane preparations were made according to standard published methods. […] The compound can be prepared as described in the literature. […] The assay was terminated by filtration (GF/B filters pre-soaked with 0.3% PEI) and washed with washing buffer (Tris-HCl 50 mM). The IC50 generated in the binding assay was corrected for tracer concentration and affinity of the tracer to derive at the affinity (Ki) of the test compounds.

P2X7 [3] = biological target: T1, P2X7; experiment: P2X7 antagonism in human whole blood (LPS + Bz-ATP induced IL-1β release, ELISA); format: cell-based; conditions: 1 mM Bz-ATP
Experimental: Human blood was collected using a blood donor program. PBMCs were isolated from blood using a Ficoll density gradient technique. Briefly, blood was laid on Ficoll solution and centrifuged at RT for 20 minutes at 2000 rpm. The buffy layer (between red blood cells and plasma) was carefully collected by aspiration, washed with PBS and centrifuged again at 1500 rpm for 15 minutes. The resulting cell pellet was washed and plated on 96 well-plates for experiments. […] Lipopolysaccharide (LPS) (30 ng/ml) was added to each well and incubated for 1 hour. Test compounds were then added and incubated for 30 minutes. The P2X7 agonist, 2′(3′)-O-(4-benzoylbenzoyl) adenosine 5′-triphosphate (Bz-ATP) was then added at a final concentration of 0.5 mM (PBMC) or 1 mM (blood). Cells were incubated for an additional 1.5 hours. At that point, supernatant was collected and stored for IL-1β assay using manufacturer's protocol for enzyme-linked immunosorbent assay (ELISA). Data was expressed as percent control, where control is defined as the difference in IL-1β release in LPS+Bz-ATP samples and LPS only samples. Data was plotted as response (% control) versus concentration to generate IC50 values.

rat P2X7 = rat P2X7 (Rattus norvegicus (Rat), UniProt Q64663); experiment: Ca2+ flux (FLIPR) in 1321N1 cells expressing recombinant rat P2X7 channel; format: cell-based; conditions: 250 μM BzATP
Experimental: as §1

T1 sequence (Q99572 whole entry): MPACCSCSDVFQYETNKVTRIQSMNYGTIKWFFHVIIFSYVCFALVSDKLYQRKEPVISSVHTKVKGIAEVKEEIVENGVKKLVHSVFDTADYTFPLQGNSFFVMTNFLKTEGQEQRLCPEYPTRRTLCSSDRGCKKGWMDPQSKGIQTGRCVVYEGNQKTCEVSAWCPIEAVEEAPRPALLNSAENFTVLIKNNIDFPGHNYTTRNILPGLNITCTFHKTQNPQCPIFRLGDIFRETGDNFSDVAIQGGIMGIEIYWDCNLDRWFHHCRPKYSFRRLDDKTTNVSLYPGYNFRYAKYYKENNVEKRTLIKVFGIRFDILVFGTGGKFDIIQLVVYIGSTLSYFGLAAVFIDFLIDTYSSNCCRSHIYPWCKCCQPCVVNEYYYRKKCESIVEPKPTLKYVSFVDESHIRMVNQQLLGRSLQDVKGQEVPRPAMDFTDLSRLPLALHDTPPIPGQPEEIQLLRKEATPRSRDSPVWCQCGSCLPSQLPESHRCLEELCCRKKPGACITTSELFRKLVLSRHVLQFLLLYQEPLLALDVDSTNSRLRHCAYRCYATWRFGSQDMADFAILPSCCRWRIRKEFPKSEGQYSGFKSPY
Sequence of rat P2X7 (Q64663 whole entry): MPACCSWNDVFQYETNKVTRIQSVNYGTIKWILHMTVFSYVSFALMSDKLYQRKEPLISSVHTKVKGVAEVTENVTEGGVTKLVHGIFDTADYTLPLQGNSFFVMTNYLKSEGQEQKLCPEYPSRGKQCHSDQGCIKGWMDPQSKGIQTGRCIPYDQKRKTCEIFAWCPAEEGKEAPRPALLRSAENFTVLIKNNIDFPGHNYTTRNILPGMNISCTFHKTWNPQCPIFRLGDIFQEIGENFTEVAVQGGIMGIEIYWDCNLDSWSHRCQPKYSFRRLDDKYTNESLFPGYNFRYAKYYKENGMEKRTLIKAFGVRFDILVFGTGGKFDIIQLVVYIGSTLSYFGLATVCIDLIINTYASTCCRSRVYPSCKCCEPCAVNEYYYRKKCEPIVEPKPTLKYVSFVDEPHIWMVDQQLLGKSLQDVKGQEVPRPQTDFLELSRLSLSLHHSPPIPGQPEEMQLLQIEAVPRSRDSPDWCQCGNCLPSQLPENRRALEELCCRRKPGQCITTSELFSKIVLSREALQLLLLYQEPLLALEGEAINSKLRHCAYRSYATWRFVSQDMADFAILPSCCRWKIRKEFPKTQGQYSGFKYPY

| IC50 (P2X7 [1]) [µM] | Ki (P2X7 [2]) [µM] | IC50 (P2X7 [3]) [µM] | IC50 (rat P2X7) [µM] | Structure (SMILES) |
| --- | --- | --- | --- | --- |
| 0.147 | 0.02 | 10 | > 10 | O=C1c2nnc(-c3ccccn3)n2CCN1Cc1cccc(Cl)c1Cl [Example 8, 7-(2,3-Dichlorobenzyl)-3-pyridin-2-yl-6,7-dihydro[1,2,4]triazolo[4,3-a]pyrazin-8(5H)-one] |
| 0.0502 | 0.01 | > 10 | > 10 | O=C1c2nnc(-c3ccccn3)n2CCN1Cc1cccc(C(F)(F)F)c1Cl [Example 9, 7-[2-Chloro-3-(trifluoromethyl)benzyl]-3-pyridin-2-yl-6,7-dihydro[1,2,4]triazolo[4,3-a]pyrazin-8(5H)-one] |
